The values that follow come from US7820645B2, “Crystalline forms” (AstraZeneca AB, priority 2006, dated 2010).

Converted amounts (≈) assume the structure as drawn. Where two headings read alike, the source gives them in different places.

A short description of data set [1]: Solubility in organic solvents (gravimetric, saturated solution from one-day slurry). The class given is physicochemical. The note with it: for solubility at 1 day: organic solvent or mixture, thermodynamic from solid, 22° C. Here is the method:
An excess of Compound A from Example 3 above was slurried in ethyl acetate for one day. A proportion of the saturated solution was then withdrawn through a 0.5 micrometer filter to a pre-weighted E-flask. The E-flask was weighed and then opened & evaporated in air, and then dried in vacuum at 40° C. until the weight was constant. The weight of the solution, the weight of dry substance, the weight of solvent and the volume of solvent were determined (using the density of ethyl acetate at 22° C.=0.90 g/ml).
An excess of Compound B from Example 2 above was slurried in isopropanol for one day in a closed vessel. A proportion of the saturated solution was then withdrawn through a 0.5 micrometer filter to a pre-weighted E-flask. The E-flask was weighed and then opened & evaporated in air, and then dried in vacuum at 70° C. until the weight was constant. The weight of the solution, the weight of dry substance, the weight of solvent and the volume of solvent were determined (using the density of isopropanol at 22° C.=0.79 g/ml).
An excess of Compound A from Example 6 above was slurried in isopropanol for one day in a closed vessel. A proportion of the saturated solution was then withdrawn through a 0.5 micrometer filter to a pre-weighted E-flask. The E-flask was weighed and then opened & evaporated in air, and then dried in vacuum at 70° C. until the weight was constant. The weight of the solution, the weight of dry substance, the weight of solvent and the volume of solvent were determined (using the density of isopropanol at 22° C.=0.79 g/ml).
An excess of Compound A from Example 6 above was slurried in ethanol for one day in a closed vessel. A proportion of the saturated solution was then withdrawn through a 0.5 micrometer filter to a pre-weighed E-flask. The E-flask was weighed and then opened and evaporated in air, and then dried in vacuum at 40-50° C. until the weight was constant. The weight of the solution, the weight of dry substance, the weight of solvent and the volume of solvent were determined (using the density of ethanol at 22° C.=0.79 g/ml).
An excess of Compound A from Example 6 above was slurried in methanol for one day in a closed vessel. A proportion of the saturated solution was then withdrawn through a 0.5 micrometer filter to a pre-weighted E-flask. The E-flask was weighed and then opened & evaporated in air, and then dried in vacuum at 40-50° C. until the weight was constant. The weight of the solution, the weight of dry substance, the weight of solvent and the volume of solvent were determined (using the density of methanol at 22° C.=0.79 g/ml).
An excess of Compound A from Example 6 above was slurried in acetone for one day in a closed vessel. A proportion of the saturated solution was then withdrawn through a 0.5 micrometer filter to a pre-weighted E-flask. The E-flask was weighed and then opened & evaporated in air, and then dried in vacuum at 70° C. until the weight was constant. The weight of the solution, the weight of dry substance, the weight of solvent and the volume of solvent were determined (using the density of acetone at 22° C.=0.82 g/ml).

Data set [2] addresses T1, thrombin (Homo sapiens, UniProt P00734). The following applies: Test A of WO 02/44145; disclosed in Example 46 of WO 02/44145; cited from earlier work.
The target in data set [3] is T1, thrombin. The following applies: Test D of WO 02/44145; disclosed in Example 47 of WO 02/44145; cited from earlier work.
Where [4] appears, read: isopropanol, Compound B from Example 2 or Compound A anhydrate from Example 6.
The mark [5] stands for this setting: isopropanol, Compound B from Example 2 or Compound A anhydrate from Example 6, read-out: solubility (mg per ml isopropanol).

With `CO/N=C(\N)c1ccc(CNC(=O)[C@@H]2CCN2C(=O)[C@H](O)c2cc(Cl)cc(OC(F)F)c2)cc1` [Compound A, Ph(3-Cl)(5-OCHF2)—(R)CH(OH)C(O)-Aze-Pab(OMe)], the “solubility as weight %” value in data set [1] (acetone, Compound A from Example 6) was 33 % w/w; in data set [1] (ethanol, Compound A from Example 6), 10 % w/w; in data set [1] (ethyl acetate, Compound A from Example 3) it was 4 % w/w; in data set [1] (setting [4]) it was 2 % w/w; in data set [1] (methanol, Compound A from Example 6), 45 % w/w. For the same compound, the solubility at 1 day worked out at 398 mg/mL (≈ 801 mM) in data set [1] (acetone, Compound A from Example 6, read-out: solubility (mg per ml acetone)); 87 mg/mL (≈ 175 mM) in data set [1] (ethanol, Compound A from Example 6, read-out: solubility (mg per ml ethanol)); 36 mg/mL (≈ 72.4 mM) in data set [1] (ethyl acetate, Compound A from Example 3, read-out: solubility (mg per ml ethyl acetate)); 15 mg/mL (≈ 30.2 mM) in data set [1] (setting [5]); 655 mg/mL (≈ 1320 mM) in data set [1] (methanol, Compound A from Example 6, read-out: solubility (mg per ml methanol)).

As for `N/C(=N\O)c1ccc(CNC(=O)[C@@H]2CCN2C(=O)[C@H](O)c2cc(Cl)cc(OC(F)F)c2)cc1` [Compound B, Ph(3-Cl)(5-OCHF2)—(R)CH(OH)C(O)-Aze-Pab(OH)], the “solubility as weight %” value in data set [1] (setting [4]) was 0.4 % w/w. In data set [1] (setting [5]), the solubility at 1 day is 3 mg/mL (≈ 6.21 mM).

`N=C(N)c1ccc(CNC(=O)[C@@H]2CCN2C(=O)[C@H](O)c2cc(Cl)cc(OC(F)F)c2)cc1` [Compound C]: the IC50 was below 20 nM in data set [2] and below 1000 nM in data set [3].

For orientation: solubility means the concentration that dissolves in the medium under given conditions. What is called IC50 is the concentration at which inhibition is half-maximal.
